Measurements as given in patent publication US20110039721A1, “METHOD FOR PREDICTION ABOUT CARCINOGENICITY OF SUBSTANCE IN RODENT” (Chemicals Evaluation and Research Institute, priority 2007, published 2011).

Experiments:
liver = conditions: in vivo; cited from earlier work
[1] = system: mRNA expressed from the genes (A) to (D) in rat liver; assay: Behavior of genes (mRNA expression level, oligo-DNA microarray) in rat liver after 28-day oral administration; format: in vivo; conditions: mRNA vs vehicle control group
Outline: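 Liver mRNA measured by oligo-DNA microarray after 28 days of once-daily oral gavage in 5-week-old male F344 rats (n=4 per group), with vehicle controls given equal solvent volume. Significance threshold: 1.5-fold up or down versus control, with changes opposite in direction to other carcinogens counted as not significant.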

rodent = conditions: in vivo; cited from earlier work
[2] = gene group (A), Unigene No. Rn.167075
[3] = gene group (C), Unigene No. Rn.120914

CCCCC(CC)COC(=O)c1ccccc1C(=O)OCC(CC)CCCC (centres unmarked) [TS002, Di(2-ethylhexyl)phthalate]
Liver carcinogenicity (liver): Cr+
Behavior of gene caused by administration of chemical substance, Gene No. 4846 ([1]; gene group (A), Unigene No. Rn.144554): −
Behavior of gene caused by administration of chemical substance, Gene No. 2026 [1, 2]: +
Behavior of gene caused by administration of chemical substance, Gene No. 4218 [1, 2]: −
Behavior of gene caused by administration of chemical substance, Gene No. 6182 ([1]; gene group (A), Unigene No. Rn.5834): −
Behavior of gene caused by administration of chemical substance, Gene No. 5600 ([1]; gene group (A), Unigene No. Rn.9836): −
Behavior of gene caused by administration of chemical substance, Gene No. 1494 ([1]; gene group (B), Unigene No. Rn.1430): +
Behavior of gene caused by administration of chemical substance, Gene No. 2045 ([1]; gene group (B), Unigene No. Rn.19329): +
Behavior of gene caused by administration of chemical substance, Gene No. 2203 ([1]; gene group (B), Unigene No. Rn.21240): +
Behavior of gene caused by administration of chemical substance, Gene No. 533 ([1]; gene group (C), Unigene No. Rn.106184): +
Behavior of gene caused by administration of chemical substance, Gene No. 725 ([1]; gene group (C), Unigene No. Rn.108075): +
Behavior of gene caused by administration of chemical substance, Gene No. 1163 ([1]; gene group (C), Unigene No. Rn.11766): −
Behavior of gene caused by administration of chemical substance, Gene No. 4973 ([1]; gene group (C), Unigene No. Rn.118529): +
Behavior of gene caused by administration of chemical substance, Gene No. 4095 ([1]; gene group (C), Unigene No. Rn.119024): +
Behavior of gene caused by administration of chemical substance, Gene No. 1334 [1, 3]: −
Behavior of gene caused by administration of chemical substance, Gene No. 6620 [1, 3]: −
Behavior of gene caused by administration of chemical substance, Gene No. 6303 ([1]; gene group (C), Unigene No. Rn.123063): −
Behavior of gene caused by administration of chemical substance, Gene No. 5878 ([1]; gene group (C), Unigene No. Rn.143213): −
Behavior of gene caused by administration of chemical substance, Gene No. 1131 ([1]; gene group (C), Unigene No. Rn.144946): +
Behavior of gene caused by administration of chemical substance, Gene No. 1562 ([1]; gene group (C), Unigene No. Rn.14744): −
Behavior of gene caused by administration of chemical substance, Gene No. 1741 ([1]; gene group (C), Unigene No. Rn.1647): −
Behavior of gene caused by administration of chemical substance, Gene No. 893 ([1]; gene group (C), Unigene No. Rn.164817): −
Behavior of gene caused by administration of chemical substance, Gene No. 6026 ([1]; gene group (C), Unigene No. Rn.167685): −
Behavior of gene caused by administration of chemical substance, Gene No. 154 ([1]; gene group (C), Unigene No. Rn.185941): −
Behavior of gene caused by administration of chemical substance, Gene No. 1993 ([1]; gene group (C), Unigene No. Rn.18728): −
Behavior of gene caused by administration of chemical substance, Gene No. 813 ([1]; gene group (C), Unigene No. Rn.201760): +
Behavior of gene caused by administration of chemical substance, Gene No. 2494 ([1]; gene group (C), Unigene No. Rn.23969): −
Behavior of gene caused by administration of chemical substance, Gene No. 2546 ([1]; gene group (C), Unigene No. Rn.24561): −
Behavior of gene caused by administration of chemical substance, Gene No. 3776 ([1]; gene group (C), Unigene No. Rn.43232): −
Behavior of gene caused by administration of chemical substance, Gene No. 3929 ([1]; gene group (C), Unigene No. Rn.4620): −
Behavior of gene caused by administration of chemical substance, Gene No. 1119 ([1]; gene group (C), Unigene No. Rn.9757): −
Behavior of gene caused by administration of chemical substance, Gene No. 6742 ([1]; gene group (C), Unigene No. Rn.9779): +
Behavior of gene caused by administration of chemical substance, Gene No. 5634 ([1]; gene group (C), Unigene No. Rn.9862): −
Behavior of gene caused by administration of chemical substance, Gene No. 5726 ([1]; gene group (D), Unigene No. Rn.9939): −
Carcinogenicity (rodent): C+
